Laboratory results from ChEMBL document CHEMBL5226366, “Synthesis and Structure Revision of Naturally Occurring Homoisoflavane (+)-Dracaeconolide B” (2023).

What was measured:
[1] = Antiangiogenic activity against human HREC cells assessed as inhibition of cell growth incubated for 44 hrs by Alamar Blue fluorescence assay; assay type: functional
[2] = tested on: HUVEC; assay: Antiangiogenic activity against HUVEC cells assessed as inhibition of cell growth incubated for 44 hrs by Alamar Blue fluorescence assay; assay type: functional; conditions: Homo sapiens

Row | SMILES | GI50 [1] [µM] | GI50 [2] [µM]
1 | COc1cc(O)c(OC)c2c1C[C@@H](Cc1ccc(O)cc1)CO2 | > 100 | > 100
2 | COc1cc2c(c(O)c1OC)CC(Cc1ccc(O)cc1)CO2 (stereo unspecified) | 3.47 | 90.1
3 | COc1cc(OC)c2c(c1O)OCC(Cc1ccc(O)cc1)C2 (stereo unspecified) | 28.3 | > 100
4 | COc1c(O)cc2c(c1OC)C[C@H](Cc1ccc(O)cc1)CO2 | > 100 | > 100
5 | COc1cc(O)c2c(c1OC)OCC(Cc1ccc(O)cc1)C2 (stereo unspecified) | > 100 | > 100
6 | COc1cc2c(c(OC)c1O)CC(Cc1ccc(O)cc1)CO2 (stereo unspecified) | 0.96 | > 100
7 | COc1c(O)cc2c(c1OC)CC(Cc1ccc(O)cc1)CO2 (stereo unspecified) | > 100 | > 100
8 | COc1c(O)cc2c(c1OC)C[C@@H](Cc1ccc(O)cc1)CO2 | > 100 | > 100
